What all share (assay type): in vivo
Experiment [1] relates to cotton pellet induced granuloma. The experiment is described as follows: cotton pellet induced granuloma test. The text has this:
In a convention cotton pellet induced granuloma test, the results were as follows: I

In experiment [2] the test system is carageenin induced oedema. The experiment is described as follows: carrageenin induced oedema test in the rat. The following applies: for inhibitions (carrageenin oedema) versus controls: dose not given. The text has this:
In a conventional carageenin induced oedema test in the rat, the results were as follows: […]
In general terms: Carrageenan injected into the paw causes an acute inflammation.

Experiment [3] has as its system phenylquinone induced mouse writhing. The experiment in a line: phenylquinone induced mouse writhing test. The following applies: po; for inhibition at 16 mg/kg: 16 mg/kg per os. The source says: In a conventional phenylquinone induced mouse writhing test, compound 1, 3 and 4 were active at the following dose per os.
Background: Writhing tests count abdominal constrictions after an irritant is injected.

The values below come from EP0032048A1, “Pyrroloylpyrrole derivatives, processes for their preparation and their use” (BEECHAM GROUP PLC, priority 1980, dated 1981).

What is called inhibition is the relative decrease from the control value, in per cent. Low readings indicate a weak effect, high ones a strong effect. With `Cn1cccc1C(=O)c1ccc(CC(=O)O)n1C` [Compound 1, 2-Carboxymethyl-1-methyl-5-(1'-methyl-2'-pyrroloyl)pyrrrole], 10 mg/kg produced 22% inhibition in experiment [1] (dose 10 mg/kg, * 0.05>p>0.02). Besides, the “Granuloma Wt.” value in experiment [1] (dose 10 mg/kg, control 48.1) was determined as 37.6 mg. The inhibition at 20 mg/kg in experiment [2] (dose 20 mg/kg, * 0.05>p>0.02) worked out at 19%. Besides, the “Mean Oedema” value in experiment [2] (dose 20 mg/kg, control 145.3 + 10.3) was 117.7 + 6.6. This molecule also registered an inhibition at 16 mg/kg in experiment [3] of 90%.
By ED50 is commonly meant the dose at which the effect has come halfway, by size or by number of responders. Lower therefore signals an effect at a small dose. In experiment [1] (dose 5 mg/kg, ** 0.01>p>0.001), `Cc1cc(CC(=O)O)n(C)c1C(=O)c1cccn1C` [Compound 3, 2-Carboxymethyl-1,4-dimethyl-5-(1'-methyl-2'-pyrroloyl) pyrrole] showed an inhibition at 5 mg/kg of 26%. Moreover, the “Granuloma Wt.” value in experiment [1] (dose 5 mg/kg, control 35.2) is 26.1 mg. In addition, testing at 12.5 mg/kg in experiment [2] (dose 12.5 mg/kg, ** 0.01>p>0.001) gave an inhibition of 33%. Further, the “Mean Oedema” value in experiment [2] (dose 12.5 mg/kg, control 106.0 + 6.01) is reported as 70.62 + 6.31. This molecule also had an inhibition at 16 mg/kg in experiment [3] of 100%. Besides, the ED50 in experiment [3] (separate test) was 2.8 mg/kg.
`Cc1cc(CCC(=O)O)n(C)c1C(=O)c1cccn1C` [Compound 4, 2-(2'-Carboxyethyl)-1,4-dimethyl-5-(1"-methyl-2" pyrroloyl) pyrrole] yielded an inhibition at 16 mg/kg in experiment [3] of 60%.
`CC(=O)CCc1cc(C)c(C(=O)c2cccn2C)n1C` [Compound 5, 4-(1',4'-Dimethyl-5'-(1"-methyl-2"-pyrroloyl)-2'-pyrryl) butan-2-one]: in experiment [2], the “inhibitions (carrageenin oedema) versus controls” value is “significantly different from controls”.
In the case of `Cc1cc(CCC(C)O)n(C)c1C(=O)c1cccn1C` (stereo not drawn) [Compound 6, 4-(1',4-Dimethyl-5'-(1"-methyl-2"-pyrroloyl)-2'-pyrryl) butan-2-ol], in experiment [2], the “inhibitions (carrageenin oedema) versus controls” value was “significantly different from controls”.
`CC(=O)OC(C)CCc1cc(C)c(C(=O)c2cccn2C)n1C` (stereo not drawn) [Compound 7, 2-Acetoxy-4-(1',4'-Dimethvl-5'-(1"-methyl-2"-pvrroloyl)-2'-pyrryl)butane]: the “inhibitions (carrageenin oedema) versus controls” value in experiment [2] was “significantly different from controls”.
